From patent US20100016275A1, “NOVEL COMPOUND 395” (priority 2008, published 2010) come the findings set out here.

The test system of data set [1] is human hepatocytes. As to the kind of experiment: Human hepatic intrinsic clearance (CLint) assay in human hepatocytes. In kind it is in vitro ADME. The conditions noted are these: human hepatocytes, protein free suspension buffer, pH 7.4, 37° C. From the text:
The hepatic metabolic component of human clearance is predicted from scaled in vitro intrinsic clearance (CLint) data from human hepatocytes (see Chem Biol Interact. 2007, 168(1), 2-15) and from the extent of human blood binding, primarily due to plasma protein binding. The well stirred model of the liver is a model for predicting blood clearance in the liver from intrinsic clearance (CLint) determined using hepatocytes. (see Drug Metab Dispos. 2005, 33(9), 1304-11) The model is usually written as:
Human Hepatic Intrinsic Clearance (CLint) Assay
For the majority of drugs, a large component of their plasma clearance is contributed by hepatic metabolism. Intrinsic clearance (CLint) is a measure of the potential of a compound to undergo metabolism and can be related to hepatic clearance in vivo from a consideration of plasma protein binding and liver blood flow. Therefore, CLint may be used as an index of the relative metabolic stability of compounds within a project and compared with other external probe substrates. Furthermore, the measurement of CLint in vitro within a research project, where hepatic metabolic clearance is known to be an issue, may be a useful means of understanding the different pharmacokinetic behaviour of the compounds in vivo.
This following description outlines a method for estimating intrinsic clearance (CLint) from human hepatocyte incubations using suspension buffer containing no HSA (human serum albumin) and maintaining physiological conditions of pH 7.4.
Hepatocytes were prepared by a two-step in situ collagenase perfusion method of a portion of the human liver, suspended in protein free buffer (see below) and stored on ice, prior to incubation.
This method is based on the procedure of Seglen (Preparation of rat liver cells. I. Effect of Ca^2+ on enzymatic dispersion of isolated, perfused liver. Exptl. Cell Res., 1972, 74, p450 and preparation of isolated rat liver cells. Methods Cell Biol., 1976, 13, p 29) which itself was developed from the one step procedure of Berry and Friend (High-yield preparation of isolated rat liver parenchymal cells. J. Cell Biol., 1969, 43, p 506).
Suspension medium: 2.34 g Na HEPES, 2.0 g HSA fraction V, 0.4 g D-fructose, DMEM (1 L powder equivalent, Sigma; w/1 g.1^−1 glucose, w/Na pyruvate, w/o NaHCO3, w/o phenol red), made up to 1 L with Milli-Q water, pH to 7.4 with 1 M HCl. (Protein free suspension buffer is made omitting the 2.0 g HSA fraction V)
The capsule of a liver which has been perfused with digestion medium was cut open and the cells gently teased out into the medium. The cells were then passed through a mesh (approximately 250 μM) into a beaker containing 50 ml suspension medium. The mesh was rinsed through into the beaker with further suspension buffer to a final volume of 100 ml. The suspension was divided between two plastic 50 mL centrifuge tubes (pre-cooled on ice) and centrifuged at 50×g for 2 min at 4° C. The supernatants were decanted and the pellets re-suspended in protein free suspension buffer to the original volume. The centrifugation step was repeated and each pellet re-suspended in approximately 10 ml protein free suspension buffer. The suspensions were combined and the volume made up to 50 mL with protein free suspension buffer.
An aliquot of cell suspension (0.2 mL) was diluted with 0.2 ml protein free suspension buffer. To the diluted cells was added 0.2 mL trypan blue solution (0.4% w/v) followed by gentle mixing. After 1 min, a pasteur pipette was used to withdraw a sample and fill an Improved Neubauer Counting Chamber by capillary action. The cells were then counted (central square only) using an inverted microscope, viable cells being able to exclude the dye and non-viable cells being stained. The percentage of viable cells in the preparation was calculated thus: […]

One may read the melting point as the temperature of the solid-liquid transition. `C[C@@H](Nc1cc(NS(=O)(=O)N2CCC2)nc(SCc2cccc(F)c2F)n1)[C@@H](O)CO` [Example 1, N-(2-[(2,3-difluorobenzyl)thio]-6-{[(1R,2R)-2,3-dihydroxy-1-methylpropyl]amino}pyrimidin-4-yl)azetidine-1-sulfonamide] showed a melting point of 116 to 116.5 °C.

As for `Cc1ccc(CSc2nc(N[C@H](C)CO)cc(NS(=O)(=O)N3CCC3)n2)c(F)c1C` [Example 42], the “Human hepatocyte Intrinsic-clearance assay CLint” value in data set [1] was 17 μL/min/10^6 cells.
